# Laboratory results published in patent US20060177530A1, “Method of treating diabetes type II” (priority 2003, published 2006).
# System: mice
# Test: Safety and toxicity studies in mice
# Assay type: in vivo
# Conditions: 0.5, 1 and 2 g/kg
# Protocol: The clinical dose of HT is in the range of 1-2000 mg/day, more preferably in the range of 5-500 mg/day and most preferably 10-100 mg/day.
smiles,measurement,value
"OCCc1ccc(O)c(O)c1 [HT, hydroxytyrosol]",clinical or pathological toxicity,no clinical or pathological toxicity
